From PubChem BioAssay AID2060900 (Molecular Pharmacology Branch, DTP, NCI, 2025)
“And” between values parts separate entries of the source, which are not always exact repeats. Identical values can stand only once.

Tested on: 521955-158-R2-J5-PDC complex spheroids, viability
Test: Anticancer human tumor 521955-158-R2-J5-PDC patient-derived pancreatic carcinoma cell line growth inhibition [RAS]
Conditions: for viability, T/C: stronger effect = lower value
Method in brief: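 Agents were tested in combination matrices in half-log decrements from a top concentration at or near clinical Cmax (10 microM if undetermined). Targets were multi-cell spheroids of tumour lines plus HUVEC and MSC stromal cells.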
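Also: compound exposure lasted seven days before the viability read.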
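For viability, T/C in this document: spheroids also contain HUVEC endothelial cells and mesenchymal stem cells as stroma.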

SMILES: NC1c2ccccc2OC12CCN(c1cnc3c(N4CCCc5ncccc54)n[nH]c3n1)CC2 (centres undefined) + CCn1c(-c2cc(N3CCN(C)CC3)cnc2C(C)OC)c2c3cc(ccc31)-c1csc(n1)CC(NC(=O)C1CC1C)C(=O)N1CCCC(N1)C(=O)OCC(C)(C)C2
- IC50 (curve of first compound, second compound 0.000949 µM): < 31.6 nM
- IC50 (curve of first compound, second compound 0.003 µM): < 31.6 nM
- IC50 (curve of first compound, second compound 0.00949 µM): < 31.6 nM
- IC50 (curve of first compound, second compound 0.03 µM): < 31.6 nM
- IC50 (curve of first compound, second compound 0.0949 µM): < 31.6 nM
- IC50 (curve of first compound, second compound 0.3 µM): < 31.6 nM
- viability, T/C (second compound 0.000949 µM, first compound 0.0316 µM): 36.8%
- viability, T/C (second compound 0.000949 µM, first compound 0.1 µM): 33.9%
- viability, T/C (second compound 0.000949 µM, first compound 0.316 µM): 36.1%
- viability, T/C (second compound 0.000949 µM, first compound 1 µM): 20.8%
- viability, T/C (second compound 0.000949 µM, first compound 3.16 µM): 18.5%
- viability, T/C (second compound 0.000949 µM, first compound 10 µM): 13.4%
- viability, T/C (second compound 0.003 µM, first compound 0.0316 µM): 35.4%
- viability, T/C (second compound 0.003 µM, first compound 0.1 µM): 28.6%
- viability, T/C (second compound 0.003 µM, first compound 0.316 µM): 21.4%
- viability, T/C (second compound 0.003 µM, first compound 1 µM): 19.2%
- viability, T/C (second compound 0.003 µM, first compound 3.16 µM): 13.3%
- viability, T/C (second compound 0.003 µM, first compound 10 µM): 5.75%
- viability, T/C (second compound 0.00949 µM, first compound 0.0316 µM): 24.2%
- viability, T/C (second compound 0.00949 µM, first compound 0.1 µM): 16%
- viability, T/C (second compound 0.00949 µM, first compound 0.316 µM): 14.4%
- viability, T/C (second compound 0.00949 µM, first compound 1 µM): 11.2%
- viability, T/C (second compound 0.00949 µM, first compound 3.16 µM): 6.08%
- viability, T/C (second compound 0.00949 µM, first compound 10 µM): 3.95%
- viability, T/C (second compound 0.03 µM, first compound 0.0316 µM): 10.4%
- viability, T/C (second compound 0.03 µM, first compound 0.1 µM): 8.87%
- viability, T/C (second compound 0.03 µM, first compound 0.316 µM): 10.9%
- viability, T/C (second compound 0.03 µM, first compound 1 µM): 8.91%
- viability, T/C (second compound 0.03 µM, first compound 3.16 µM): 7.26%
- viability, T/C (second compound 0.03 µM, first compound 10 µM): 4.07%
- viability, T/C (second compound 0.0949 µM, first compound 0.0316 µM): 11%
- viability, T/C (second compound 0.0949 µM, first compound 0.1 µM): 9.54%
- viability, T/C (second compound 0.0949 µM, first compound 0.316 µM): 11.1%
- viability, T/C (second compound 0.0949 µM, first compound 1 µM): 5.55%
- viability, T/C (second compound 0.0949 µM, first compound 3.16 µM): 8%
- viability, T/C (second compound 0.0949 µM, first compound 10 µM): 3.91%
- viability, T/C (second compound 0.3 µM, first compound 0.0316 µM): 10.1%
- viability, T/C (second compound 0.3 µM, first compound 0.1 µM): 7.36%
- viability, T/C (second compound 0.3 µM, first compound 0.316 µM): 9.18%
- viability, T/C (second compound 0.3 µM, first compound 1 µM): 8.17%
- viability, T/C (second compound 0.3 µM, first compound 3.16 µM): 9.16%
- viability, T/C (second compound 0.3 µM, first compound 10 µM): 3.2%

SMILES: C[C@@H](NC(=O)c1ncnc(N)c1Cl)c1ncc(C(=O)Nc2cc(C(F)(F)F)c(Cl)cn2)s1
- viability, T/C (compound 10 µM): 60.9% [middle of 4 runs]
- IC50 (curve of compound): > 10000 nM and 5730 nM
